# From PubChem BioAssay (NCI)
#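 Exposure lasted 48 hours, with cells grown in 96-well plates and compounds tested at five concentrations. TGI denotes the concentration required for complete inhibition of growth.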
# How the values were obtained:
# Test in all cases: NCI tumour cell line growth inhibition, 48 h
# [1] = tested on: CAKI-1 renal
# [2] = tested on: UO-31 renal
# [3] = tested on: KM12 colon
# [4] = tested on: COLO 205 colon
# [5] = tested on: SW-620 colon
# [6] = tested on: LXFL 529 NSCLC
# [7] = tested on: OVCAR-5 ovarian
# [8] = tested on: HOP-92 NSCLC
# [9] = tested on: SNB-19 CNS
# [10] = tested on: MOLT-4 leukemia
# [11] = tested on: XF 498 CNS
# [12] = tested on: HOP-62 NSCLC
# [13] = tested on: M19-MEL melanoma
# [14] = tested on: SF-268 CNS
# [15] = tested on: OVCAR-3 ovarian
# [16] = tested on: CCRF-CEM leukemia
# [17] = tested on: U251 CNS
# [18] = tested on: NCI-H23 lung
# [19] = tested on: ACHN renal
# [20] = tested on: SR leukemia
# [21] = tested on: UACC-257 melanoma
# [22] = tested on: SK-OV-3 ovarian
# [23] = tested on: KM20L2 colon
# [24] = tested on: HCT-15 colon
# [25] = tested on: SK-MEL-2 melanoma
# [26] = tested on: HCT-116 colon
# [27] = tested on: OVCAR-4 ovarian
# [28] = tested on: SN12C renal
# [29] = tested on: SNB-75 CNS
# [30] = tested on: NCI-H460 lung
# [31] = tested on: M14 melanoma
# [32] = tested on: RPMI-8226 leukemia
# [33] = tested on: SNB-78 CNS
# [34] = tested on: SK-MEL-5 melanoma
# [35] = tested on: HCC-2998 colon
# [36] = tested on: DMS 273 small cell lung
# [37] = tested on: A549 NSCLC
# [38] = tested on: DLD-1 colon
# [39] = tested on: NCI-H226 lung
# [40] = tested on: A498 renal
# [41] = tested on: SK-MEL-28 melanoma
# [42] = tested on: MALME-3M melanoma
# [43] = tested on: UACC-62 melanoma
# [44] = tested on: K-562 leukemia
# [45] = tested on: HL-60(TB) leukemia
# [46] = tested on: OVCAR-8 ovarian
# [47] = tested on: SF-295 CNS
# [48] = tested on: NCI-H522 lung
# [49] = tested on: TK-10 renal
# [50] = tested on: DMS 114 small cell lung
# [51] = tested on: SF-539 CNS
# [52] = tested on: HT29 colon
# [53] = tested on: IGROV1 ovarian
# [54] = tested on: LOX IMVI melanoma
# [55] = tested on: BT-549 breast
# [56] = tested on: RXF 393 renal
# [57] = tested on: T-47D breast
# [58] = tested on: DU-145 prostate
# [59] = tested on: PC-3 prostate
# [60] = tested on: 786-0 renal
# [61] = tested on: HS 578T breast
# [62] = tested on: MDA-MB-435
# [63] = tested on: EKVX NSCLC
# [64] = tested on: MDA-N
# [65] = tested on: MCF7 breast
# [66] = tested on: MDA-MB-231 breast
# [67] = tested on: NCI/ADR-RES ovarian
smiles,measurement,setting,value
COC(=O)C1=COC2OC3/C(=C\c4ccc(O)c(OC)c4)C(=O)OC34C=CC1C24 (stereo not given),TGI,[1],41.7 µM
same,TGI,[2],28.3 µM
same,TGI,[3],26.8 µM
same,TGI,[4],43.8 µM
same,TGI,[5],35.9 µM
same,TGI,[6],27.1 µM
same,TGI,[7],32.6 µM
same,TGI,[8],44.6 µM
same,TGI,[9],35.3 µM
same,TGI,[10],> 100 µM
same,TGI,[11],18.4 µM
same,TGI,[12],39.5 µM
same,TGI,[13],27.3 µM
same,TGI,[14],35.3 µM
same,TGI,[15],28.2 µM
same,TGI,[16],49.2 µM
same,TGI,[17],28.5 µM
same,TGI,[18],32.5 µM
same,TGI,[19],28.3 µM
same,TGI,[20],> 100 µM
same,TGI,[21],32.5 µM
same,TGI,[22],31 µM
same,TGI,[23],33.6 µM
same,TGI,[24],27.7 µM
same,TGI,[25],23.7 µM
same,TGI,[26],34.4 µM
same,TGI,[27],34.4 µM
same,TGI,[28],35.1 µM
same,TGI,[29],25.2 µM
same,TGI,[30],31.7 µM
same,TGI,[31],14.7 µM
same,TGI,[32],> 100 µM
same,TGI,[33],39.4 µM
same,TGI,[34],> 100 µM
same,TGI,[35],22.9 µM
same,TGI,[36],30 µM
same,TGI,[37],32.4 µM
same,TGI,[38],32.5 µM
same,TGI,[39],29.2 µM
same,TGI,[40],45.4 µM
same,TGI,[41],33.7 µM
same,TGI,[42],31 µM
same,TGI,[43],36.4 µM
same,TGI,[44],37.6 µM
same,TGI,[45],27.7 µM
same,TGI,[46],37.7 µM
same,TGI,[47],32.5 µM
same,TGI,[48],28.8 µM
same,TGI,[49],31 µM
same,TGI,[50],39.5 µM
same,TGI,[51],31.2 µM
same,TGI,[52],33.5 µM
same,TGI,[53],40.3 µM
CC(C)=CC(O)C/C(C)=C/CC/C(C)=C/CCC1(C)C(CCCO)/C(=C(/C)C=O)CCC1(C)O (stereo not given),TGI,[1],> 100 µM
same,TGI,[2],> 100 µM
same,TGI,[3],52.9 µM
same,TGI,[4],> 100 µM
same,TGI,[54],> 100 µM
same,TGI,[5],> 100 µM
same,TGI,[7],> 100 µM
same,TGI,[8],> 100 µM
same,TGI,[9],> 100 µM
same,TGI,[10],83.2 µM
same,TGI,[12],88.6 µM
same,TGI,[55],> 100 µM
same,TGI,[14],> 100 µM
same,TGI,[15],> 100 µM
same,TGI,[16],> 100 µM
same,TGI,[17],> 100 µM
same,TGI,[56],90.6 µM
same,TGI,[18],93 µM
same,TGI,[57],> 100 µM
same,TGI,[19],43.6 µM
same,TGI,[20],83.3 µM
same,TGI,[58],> 100 µM
same,TGI,[21],> 100 µM
same,TGI,[22],> 100 µM
same,TGI,[59],> 100 µM
same,TGI,[24],> 100 µM
same,TGI,[25],> 100 µM
same,TGI,[26],> 100 µM
same,TGI,[27],> 100 µM
same,TGI,[28],76.2 µM
same,TGI,[29],> 100 µM
same,TGI,[30],> 100 µM
same,TGI,[60],> 100 µM
same,TGI,[61],> 100 µM
same,TGI,[62],> 100 µM
same,TGI,[31],60.9 µM
same,TGI,[32],47.2 µM
same,TGI,[34],> 100 µM
same,TGI,[63],> 100 µM
same,TGI,[35],68.2 µM
same,TGI,[64],52.4 µM
same,TGI,[37],> 100 µM
same,TGI,[39],> 100 µM
same,TGI,[40],> 100 µM
same,TGI,[65],79.2 µM
same,TGI,[66],74.1 µM
same,TGI,[41],> 100 µM
same,TGI,[42],> 100 µM
same,TGI,[43],> 100 µM
same,TGI,[44],7.94 µM
same,TGI,[45],43.7 µM
same,TGI,[46],> 100 µM
same,TGI,[67],> 100 µM
same,TGI,[47],> 100 µM
same,TGI,[48],> 100 µM
same,TGI,[49],> 100 µM
same,TGI,[51],52 µM
same,TGI,[52],70.9 µM
same,TGI,[53],61.7 µM
CC1CC(=O)C(CC(=O)O)C1C(C(=O)C(=O)Nc1c(C#N)cccc1[N+](=O)[O-])[N+](=O)[O-] (stereo not given),TGI,[1],> 100 µM
same,TGI,[2],> 100 µM
same,TGI,[3],> 100 µM
same,TGI,[4],> 100 µM
same,TGI,[54],> 100 µM
same,TGI,[5],> 100 µM
same,TGI,[6],> 100 µM
same,TGI,[7],> 100 µM
same,TGI,[8],> 100 µM
same,TGI,[9],> 100 µM
same,TGI,[10],> 100 µM
same,TGI,[11],> 100 µM
same,TGI,[12],> 100 µM
same,TGI,[13],> 100 µM
same,TGI,[14],> 100 µM
same,TGI,[15],> 100 µM
same,TGI,[16],> 100 µM
same,TGI,[17],> 100 µM
same,TGI,[56],> 100 µM
same,TGI,[18],> 100 µM
same,TGI,[19],> 100 µM
same,TGI,[20],> 100 µM
same,TGI,[21],> 100 µM
same,TGI,[22],> 100 µM
same,TGI,[23],> 100 µM
same,TGI,[24],> 100 µM
same,TGI,[25],> 100 µM
same,TGI,[26],> 100 µM
same,TGI,[27],> 100 µM
same,TGI,[29],> 100 µM
same,TGI,[30],> 100 µM
same,TGI,[60],> 100 µM
same,TGI,[31],> 100 µM
same,TGI,[32],> 100 µM
same,TGI,[33],> 100 µM
same,TGI,[34],> 100 µM
same,TGI,[63],> 100 µM
same,TGI,[35],> 100 µM
same,TGI,[37],> 100 µM
same,TGI,[38],> 100 µM
same,TGI,[39],> 100 µM
same,TGI,[40],> 100 µM
same,TGI,[41],> 100 µM
same,TGI,[42],> 100 µM
same,TGI,[43],> 100 µM
same,TGI,[44],> 100 µM
same,TGI,[45],> 100 µM
same,TGI,[46],> 100 µM
same,TGI,[47],> 100 µM
same,TGI,[49],> 100 µM
same,TGI,[50],> 100 µM
same,TGI,[51],> 100 µM
same,TGI,[52],> 100 µM
same,TGI,[53],> 100 µM
CNc1cccnc1/C=N/NC(N)=S,TGI,[1],> 10 µM
same,TGI,[2],4.5 µM
same,TGI,[3],> 10 µM
same,TGI,[4],> 10 µM
same,TGI,[54],> 10 µM
same,TGI,[5],> 10 µM
same,TGI,[7],9.78 µM
same,TGI,[8],> 10 µM
same,TGI,[9],> 10 µM
same,TGI,[10],> 10 µM
same,TGI,[12],> 8.19 µM
same,TGI,[55],> 10 µM
same,TGI,[14],> 10 µM
same,TGI,[15],> 8.6 µM
same,TGI,[16],> 10 µM
same,TGI,[17],> 10 µM
same,TGI,[56],> 10 µM
same,TGI,[18],> 6.65 µM
same,TGI,[57],> 10 µM
same,TGI,[19],1.76 µM
same,TGI,[20],> 10 µM
same,TGI,[58],3.89 µM
same,TGI,[21],> 10 µM
same,TGI,[22],> 10 µM
same,TGI,[59],> 10 µM
same,TGI,[24],> 7.32 µM
same,TGI,[25],> 10 µM
same,TGI,[26],> 8.26 µM
same,TGI,[27],> 10 µM
same,TGI,[28],> 8.25 µM
same,TGI,[29],> 7.14 µM
same,TGI,[30],> 10 µM
same,TGI,[60],> 10 µM
same,TGI,[61],> 10 µM
same,TGI,[62],> 10 µM
same,TGI,[31],3.94 µM
same,TGI,[32],> 10 µM
same,TGI,[34],> 10 µM
same,TGI,[63],> 10 µM
same,TGI,[35],> 10 µM
same,TGI,[64],> 10 µM
same,TGI,[37],9.91 µM
same,TGI,[39],> 10 µM
same,TGI,[40],> 10 µM
same,TGI,[65],> 10 µM
same,TGI,[66],> 10 µM
same,TGI,[41],> 10 µM
same,TGI,[42],> 10 µM
same,TGI,[43],3.07 µM
same,TGI,[44],> 10 µM
same,TGI,[45],> 6.25 µM
same,TGI,[46],> 10 µM
same,TGI,[67],9.94 µM
same,TGI,[47],5.71 µM
same,TGI,[48],> 10 µM
same,TGI,[49],> 10 µM
same,TGI,[51],1.54 µM
same,TGI,[52],> 10 µM
same,TGI,[53],> 10 µM
